In patent US20090270379A1, “QUINOLONE DERIVATIVES USEFUL AS ANTIBACTERIAL AGENTS” (priority 2008, published 2009):
Values after ≈ are worked out from the molar mass of the structure shown.

Columns and labels:
Assay type in all cases: cell-based
[1] = system: Staphylococcus aureus OC4172; assay: In vitro antibacterial activity (MIC), microdilution broth method, strain A; details: cation adjusted Mueller-Hinton broth, 35° C., 16-20 hours
Method: (§1) Minimal inhibitory concentration (MIC) is an indicator of in vitro antibacterial activity. […] The in vitro antimicrobial activity of representative compounds of the present invention was determined by the microdilution broth method following the test method from the National Committee for Clinical Laboratory Standards (NCCLS). This method is described in the NCCLS Document M7-A4, Vol. 17, No. 2, “Methods for Dilution Antimicrobial Susceptibility Test for Bacteria that Grow Aerobically—Fourth Edition”, which is incorporated herein by reference.
(§2) In this method two-fold serial dilutions of drug in cation adjusted Mueller-Hinton broth were added to wells in microdilution trays. The test organisms were prepared by adjusting the turbidity of actively growing broth cultures so that the final concentration of test organism after it is added to the wells was approximately 5×10^4 CFU/well. Following inoculation of the microdilution trays, the trays were incubated at 35° C. for 16-20 hours and then read. The amount of growth in the wells containing the test compound was compared with the amount of growth in the growth-control wells (no test compound) used in each tray.
(§3) Representative compounds of the present invention were tested against a variety of pathogenic bacteria with results as listed in Table 3, below.

[2] = system: strain B, fluoroquinolone-resistant clinical isolate of Streptococcus pneumoniae; assay: In vitro antibacterial activity (MIC), microdilution broth method, strain B; details: read-out: MIC (μg/mL) B
Method: as §1, §2, §3

[3] = system: strain C, fluoroquinolone-resistant clinical isolate of Streptococcus pneumoniae; assay: In vitro antibacterial activity (MIC), microdilution broth method, strain C; details: read-out: MIC (μg/mL) C
Method: as §1, §2, §3

[4] = system: strain D, fluoroquinolone-resistant clinical isolate of Streptococcus pneumoniae; assay: In vitro antibacterial activity (MIC), microdilution broth method, strain D; details: read-out: MIC (μg/mL) D
Method: as §1, §2, §3

[5] = system: Streptococcus pneumoniae ATCC 49619; assay: In vitro antibacterial activity (MIC), microdilution broth method, strain E; details: ATCC49619, 35° C., 16-20 hours
Method: as §1, §2, §3

Compound | MIC [1] [mg/L] | MIC [2] [µg/mL] | MIC [3] [µg/mL] | MIC [4] [µg/mL] | MIC [5] [mg/L]
O=C(O)c1cn(-c2ccc(F)cc2F)c2nc(-c3cc4n(c3)CCN(Cc3ccccc3)C4)c(F)cc2c1=O [Compound 30, 7-(2-Benzyl-1,2,3,4-tetrahydro-pyrrolo[1,2-a]pyrazin-7-yl)-1-(2,4-difluoro-phenyl)-6-fluoro-4-oxo-1,4-dihydro-[1,8]naphthyridine-3-carboxylic acid] | 2 (≈ 3.77 µM) | 8 (≈ 15.1 µM) | 8 (≈ 15.1 µM) | 16 (≈ 30.2 µM) | 8 (≈ 15.1 µM)
COc1c(-c2cc3n(c2)CCN(Cc2ccccc2)C3)c(F)cc2c(=O)c(C(=O)O)cn(C3CC3)c12 [Compound 31, 7-(2-Benzyl-1,2,3,4-tetrahydro-pyrrolo[1,2-a]pyrazin-7-yl)-1-cyclopropyl-6-fluoro-8-methoxy-4-oxo-1,4-dihydro-quinoline-3-carboxylic acid] | 0.25 (≈ 0.513 µM) | 8 (≈ 16.4 µM) | > 16 | > 16 | 2 (≈ 4.1 µM)
COc1c(C2=C[C@H]3CNCCN3C2)c(F)cc2c(=O)c(C(=O)O)cn(C3CC3)c12 [Compound 32, 1-Cyclopropyl-6-fluoro-7-(1,2,3,4,6,8a-hexahydro-pyrrolo[1,2S-a]pyrazin-7-yl)-8-methoxy-4-oxo-1,4-dihydro-quinoline-3-carboxylic acid] | 0.25 (≈ 0.626 µM) | 16 (≈ 40.1 µM) | > 16 | 16 (≈ 40.1 µM) | 2 (≈ 5.01 µM)
C[C@H]1COc2c(C3=C[C@H]4CNCCN4C3)c(F)cc3c(=O)c(C(=O)O)cn1c23 [Compound 33, 8-Fluoro-9-(1,2,3,4,6,8a-hexahydro-pyrrolo[12-a]pyrazin-7-yl)-3S-methyl-6-oxo-2,3-dihydro-6H-1-oxa-3a-aza-phenalene-5-carboxylic acid] | 0.25 (≈ 0.649 µM) | > 16 | > 16 | > 16 | 2 (≈ 5.19 µM)
COc1c(-c2cc3n(c2)CCNC3)c(F)cc2c(=O)c(C(=O)O)cn(C3CC3)c12 [Compound 34, 1-Cyclopropyl-6-fluoro-8-methoxy-4-oxo-7-(1,2,3,4-tetrahydro-pyrrolo[1,2-a]pyrazin-7-yl)-1,4-dihydro-quinoline-3-carboxylic acid] | 0.03 (≈ 0.0755 µM) | 1 (≈ 2.52 µM) | 1 (≈ 2.52 µM) | 1 (≈ 2.52 µM) | 0.25 (≈ 0.629 µM)
C[C@H]1COc2c(-c3cc4n(c3)CCNC4)c(F)cc3c(=O)c(C(=O)O)cn1c23 [Compound 35, 8-Fluoro-3S-methyl-6-oxo-9-(1,2,3,4-tetrahydro-pyrrolo[1,2-a]pyrazin-7-yl)-2,3-dihydro-6H-1-oxa-3a-aza-phenalene-5-carboxylic acid] | 0.5 (≈ 1.3 µM) | > 16 | > 16 | > 16 | 2 (≈ 5.22 µM)
